The values that follow come from US20250313572A1, “MACROCYCLIC MCL-1 INHIBITORS AND METHODS OF USE” (AbbVie Inc., priority 2017, published 2025).

The target in assay [1] is GST-MCL-1 (Homo sapiens, UniProt Q07820). The experiment in a line: TR-FRET MCL-1 binding assay (competition with probe F-Bak). The gist of the method: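 Test compounds, 11 three-fold dilutions from 25 μM final, incubated 2 hours at room temperature with GST-MCL-1, F-Bak probe and Tb-anti-GST antibody. TR-FRET read at 340/35 nm excitation with 520/525 and 495/510 nm emission. Run without human serum and with 10% HS.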
Chain of GST-MCL-1 (Q07820 whole entry): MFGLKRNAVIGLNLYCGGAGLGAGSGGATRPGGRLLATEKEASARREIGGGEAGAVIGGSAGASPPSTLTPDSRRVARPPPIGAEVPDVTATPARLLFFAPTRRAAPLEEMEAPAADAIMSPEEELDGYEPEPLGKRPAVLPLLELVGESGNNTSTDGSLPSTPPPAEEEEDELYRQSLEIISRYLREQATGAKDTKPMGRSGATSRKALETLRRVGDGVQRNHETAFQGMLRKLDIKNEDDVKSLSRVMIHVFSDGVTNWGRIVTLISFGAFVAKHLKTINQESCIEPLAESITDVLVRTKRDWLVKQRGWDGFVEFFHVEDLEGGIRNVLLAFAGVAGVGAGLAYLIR

For assay [2], the system named is AMO-1 human multiple myeloma tumor cell line. Briefly: AMO-1 cell viability assay (CellTiter-Glo, 24 hours). As to conditions: Homo sapiens, AMO1, 24 h, read-out: AMO-1 Viability IC50 (μM, 10% FBS), 10% FBS, 24 hours of compound treatment. It is filed as cell-based.
Assay [3] relates to NCI-H929 human multiple myeloma tumor cell line. The experiment in a line: NCI-H929 cell viability assay (CellTiter-Glo, 24 hours). It counts as cell-based. The settings on record: Homo sapiens, NCI-H929, 24 h, read-out: H929 Viability IC50 (μM, 10% FBS), 10% FBS, 24 hours of compound treatment.
The mark [4] stands for this setting: MCL-1 Binding Ki (nM, 10% HS), in the presence of 10% HS (human serum).
Where [5] appears, read: without HS, read-out: MCL-1 Binding Ki.

SMILES strings stand for the structures. Like-named read-outs stand apart in the source and are kept apart here. Some results are limits rather than exact numbers.

In the case of `COc1ccccc1-c1nccc(COc2ccc3cc2C[C@H](C(=O)O)Oc2ncnc4sc(-c5ccc(F)cc5)c(c24)-c2ccc(c(Cl)c2C)O[C@H](CN2CCN(C[C@H]4O[C@H](OC)[C@@H](OC)[C@@H](OC)[C@@H]4OC)CC2)CO3)n1` [Example 6, methyl 6-(4-{[(7R,16R,21S)-7-carboxy-19-chloro-1-(4-fluorophenyl)-10-{[2-(2-methoxyphenyl)pyrimidin-4-yl]methoxy}-20-methyl-7,8,15,16-tetrahydro-18,21-etheno-13,9-(metheno)-6,14,17-trioxa-2-thia-3,5-diazacyclononadeca[1,2,3-cd]inden-16-yl]methyl}piperazin-1-yl)-6-deoxy-2,3,4-tri-O-methyl-a-D-mannopyranoside], the Ki amounted to 0.221 nM in assay [1] (setting [4]) and 0.014 nM in assay [1] (setting [5]). Moreover, the figures for the IC50 in assay [2] and in assay [3] were 0.03 µM and 0.024 µM, respectively.

In the case of `CO[C@H]1O[C@H](COc2cccc(-c3nccc(COc4ccc5cc4C[C@H](C(=O)O)Oc4ncnc6sc(-c7ccc(F)cc7)c(c46)-c4ccc(c(Cl)c4C)O[C@H](CN4CCN(C)CC4)CO5)n3)c2)[C@@H](OC)[C@H](OC)[C@@H]1OC` [Example 7, methyl 6-O-{3-[4-({[(7R,16R,21S)-7-carboxy-19-chloro-1-(4-fluorophenyl)-20-methyl-16-[(4-methylpiperazin-1-yl)methyl]-7,8,15,16-tetrahydro-18,21-etheno-13,9-(metheno)-6,14,17-trioxa-2-thia-3,5-diazacyclononadeca[1,2,3-cd]inden-10-yl]oxy}methyl)pyrimidin-2-yl]phenyl}-2,3,4-tri-O-methyl-a-D-mannopyranoside], the figures for the Ki in assay [1] (setting [4]) and in assay [1] (setting [5]) were 0.599 nM and 0.054 nM, respectively. In addition, the results for the IC50 in assay [2] and in assay [3] were 0.007 µM and 0.011 µM, respectively.

For `CO[C@H]1O[C@H](COc2cccc(-c3nccc(COc4ccc5cc4C[C@@H](C(=O)O)Oc4ncnc6sc(-c7ccc(F)cc7)c(c46)-c4ccc(c(Cl)c4C)O[C@H](CN4CCN(C)CC4)CO5)n3)c2)[C@@H](OC)[C@H](OC)[C@@H]1OC` [Example 8, methyl 6-O-{3-[4-({[(7S,16R,21S)-7-carboxy-19-chloro-1-(4-fluorophenyl)-20-methyl-16-[(4-methylpiperazin-1-yl)methyl]-7,8,15,16-tetrahydro-18,21-etheno-13,9-(metheno)-6,14,17-trioxa-2-thia-3,5-diazacyclononadeca[1,2,3-cd]inden-10-yl]oxy}methyl)pyrimidin-2-yl]phenyl}-2,3,4-tri-O-methyl-a-D-mannopyranoside], the Ki in assay [1] (setting [4]) stood at 111 nM; in assay [1] (setting [5]), 8.83 nM. Moreover, the IC50 turned out to be 0.518 µM in assay [2] and 0.989 µM in assay [3].

As for `CO[C@H]1O[C@H](COc2ccc(-c3nccc(COc4ccc5cc4C[C@H](C(=O)O)Oc4ncnc6sc(-c7ccc(F)cc7)c(c46)-c4ccc(c(Cl)c4C)CN(CCN4CCN(C)CC4)C5)n3)cc2)[C@@H](O)[C@H](O)[C@H]1O` [Example 9, methyl 6-O-{4-[4-({[(7R,20S)-7-carboxy-18-chloro-1-(4-fluorophenyl)-19-methyl-15-[2-(4-methylpiperazin-1-yl)ethyl]-7,8,15,16-tetrahydro-14H-17,20-etheno-13,9-(metheno)-6-oxa-2-thia-3,5,15-triazacyclooctadeca[1,2,3-cd]inden-10-yl]oxy}methyl)pyrimidin-2-yl]phenyl}-a-D-glucopyranoside], the results for the Ki in assay [1] (setting [4]) and in assay [1] (setting [5]) were 0.296 nM and 0.048 nM, respectively. Also, the IC50 is 0.732 µM in assay [2] and over 1 µM in assay [3].

As to `CO[C@H]1O[C@H](COc2ccc(-c3nccc(COc4ccc5cc4C[C@H](C(=O)O)Oc4ncnc6sc(-c7ccc(F)cc7)c(c46)-c4ccc(c(Cl)c4C)CN(CCN4CCN(C)CC4)C5)n3)cc2)[C@@H](O)[C@H](O)[C@@H]1O` [Example 10, methyl 6-O-{4-[4-({[(7R,20S)-7-carboxy-18-chloro-1-(4-fluorophenyl)-19-methyl-15-[2-(4-methylpiperazin-1-yl)ethyl]-7,8,15,16-tetrahydro-14H-17,20-etheno-13,9-(metheno)-6-oxa-2-thia-3,5,15-triazacyclooctadeca[1,2,3-cd]inden-10-yl]oxy}methyl)pyrimidin-2-yl]phenyl}-a-D-mannopyranoside], the Ki came to 0.494 nM in assay [1] (setting [4]) and 0.06 nM in assay [1] (setting [5]). Further, the IC50 in assay [2] and in assay [3] was over 1 µM each time.

For the molecule `CO[C@H]1O[C@H](COc2ccc(-c3nccc(COc4ccc5cc4C[C@H](C(=O)O)Oc4ncnc6sc(-c7ccc(F)cc7)c(c46)-c4ccc(c(Cl)c4C)CN(CCN4CCN(C)CC4)C5)n3)cc2)[C@@H](OC)[C@H](OC)[C@@H]1OC` [Example 11, methyl 6-O-{4-[4-({[(7R,20S)-7-carboxy-18-chloro-1-(4-fluorophenyl)-19-methyl-15-[2-(4-methylpiperazin-1-yl)ethyl]-7,8,15,16-tetrahydro-14H-17,20-etheno-13,9-(metheno)-6-oxa-2-thia-3,5,15-triazacyclooctadeca[1,2,3-cd]inden-10-yl]oxy}methyl)pyrimidin-2-yl]phenyl}-2,3,4-tri-O-methyl-a-D-mannopyranoside], the Ki in assay [1] (setting [4]) came to 2.34 nM; in assay [1] (setting [5]) it was 0.374 nM. For the same molecule, the IC50 in assay [2] came out at 0.363 µM; in assay [3] it was 0.514 µM.

Take `CO[C@H]1O[C@H](COc2ccc(-c3nccc(COc4ccc5cc4C[C@H](C(=O)O)Oc4ncnc6sc(-c7ccc(F)cc7)c(c46)-c4ccc(c(Cl)c4C)O[C@H](CN4CCN(C)CC4)CO5)n3)cc2)[C@@H](O)[C@H](O)[C@@H]1O` [Example 12, methyl 6-O-{4-[4-({[(7R,16R,21S)-7-carboxy-19-chloro-1-(4-fluorophenyl)-20-methyl-16-[(4-methylpiperazin-1-yl)methyl]-7,8,15,16-tetrahydro-18,21-etheno-13,9-(metheno)-6,14,17-trioxa-2-thia-3,5-diazacyclononadeca[1,2,3-cd]inden-10-yl]oxy}methyl)pyrimidin-2-yl]phenyl}-a-D-mannopyranoside]: the results for the Ki in assay [1] (setting [4]) and in assay [1] (setting [5]) were 0.227 nM and 0.603 nM, respectively. Besides, the IC50 in assay [2] was 0.0187 µM; in assay [3] it was 0.0316 µM.

Regarding `CO[C@H]1O[C@H](COc2ccc(-c3nccc(COc4ccc5cc4C[C@H](C(=O)O)Oc4ncnc6sc(-c7ccc(F)cc7)c(c46)-c4ccc(c(Cl)c4C)O[C@H](CN4CCN(C)CC4)CO5)n3)cc2)[C@@H](OC)[C@H](OC)[C@@H]1OC` [Example 14, methyl 6-O-{4-[4-({[(7R,16R,21S)-7-carboxy-19-chloro-1-(4-fluorophenyl)-20-methyl-16-[(4-methylpiperazin-1-yl)methyl]-7,8,15,16-tetrahydro-18,21-etheno-13,9-(metheno)-6,14,17-trioxa-2-thia-3,5-diazacyclononadeca[1,2,3-cd]inden-10-yl]oxy}methyl)pyrimidin-2-yl]phenyl}-2,3,4-tri-O-methyl-a-D-mannopyranoside], the Ki in assay [1] (setting [4]) turned out to be 0.547 nM; in assay [1] (setting [5]), 0.124 nM. Also, the figures for the IC50 in assay [2] and in assay [3] were 0.00154 µM and 0.00258 µM, respectively.
